Test results from patent publication EP0059817A1, “Serpentine, alstonine and sempervirine drugs for the specific inhibition of tumurous and cancerous cells” (priority 1981, dated 1982).

Legend:
[1] = system: Cellules primaires de reins de singe; test: cell culture cytotoxicity, normal cells; format: cell-based
Procedure: Des cultures de cellules saines (cellules primaires de reins de singe, cellules de lignée "Vero" et "SIRC") et des cultures de cellules cancéreuses (cellules K.B., cellules Hela, cellules Hep II et cellules L)ont reçu une dose de 200 Mg, soit de serpentine, soit d'alstonine, soit de sempervirine, par ml de culture.
(§1) L'effet cytotoxique spécifique, vis-à-vis des cellules tumorales utilisées, ne s'est jamais démenti au cours des très nombreuses expériences effectuées. Par contre, pour effectuer les cellules saines il a fallu des quantités d'alcaloides au moins dix fois plus grandes (plus de 2 mg/ml). (Les cultures de cellules in-vitro sans mycoplàsmes ont été effectuées dans les conditions classiques et en l'absence d'antibiotique qui pourraient fausser les résultats).
(§2) Les cellules cancéreuses et saines utilisées ne contenaient pas de mycoplasmes et le milieu de culture ne contenait pas d'antibiotique, ces derniers pouvant sensibiliser les cellules et par conséquent fausser les résultats.

[2] = system: Cellules "Vero" (cellules de lignée); test: cell culture cytotoxicity, normal cells; format: cell-based; conditions: 150 µg dès l'ensemencement (per ml of culture)
Procedure: as §1, §2

Cellules Hela = test: cell culture cytotoxicity, cancer cells; format: cell-based; conditions: 150 µg dès l'ensemencement (per ml of culture); culture de 3 jours
Procedure: as §1, §2

Cellules K.B. = test: cell culture cytotoxicity, cancer cells; format: cell-based
Procedure: as §1, §2

Cellules L = test: cell culture cytotoxicity, cancer cells; format: cell-based; conditions: 150 µg dès l'ensemencement (per ml of culture)
Procedure: as §1, §2

cellules saines = test: cell culture cytotoxicity, healthy cells as a group; format: cell-based
Procedure: as §1, §2

cellules cancéreuses = test: cell culture cytotoxicity, cancer cells as a group; format: cell-based
Procedure: as §1, §2

lymphome YC 8 = test: lymphoma YC 8 of the mouse, flavopéreirine; format: in vivo, souris BALB c; conditions: for survie (surviving mice/total): i.p. 2 x 150 µg per day, 10 days from 24 h after inoculation
Source text: En ce qui concerne l'activité de la flavopéreirine vis-à-vis du lumphome YC 8 de la souris, 30 souris BALB c de 19-20 g ont été inoculées par voie intrapéritonéale par 10^4 cellules ascitiques du lymphome YC 8 fraîchement prélevées et en pleine division chez la souris.
Dix souris ont été gardées comme témoins et 20 souris ont été traitées 24 heures après inoculation.
La flavopéreirine est dissoute en milieu physiologique tamponné (pH 7,65) et deux injections par voie intrapéritonéale et par jour sont administrées, (2 x 150 µg de flavopéreirine) et ceci pendant 10 jours consécutifs.

ascite d'Ehrlich [3] = test: Ehrlich ascites tumour in the mouse, flavopéreirine; format: in vivo, souris SWISS; conditions: for survie (surviving mice/total): i.p. 2 x 150 µg per day, 10 days from 24 h after inoculation
Procedure: En ce qui concerne l'activité de la flavopéreirine, vis-à-vis des tumeurs ascites d'Ehrlich de la souris, 30 souris SWISS de 20- 22 g ont été inoculées par voie intrapérito néale par 5 x 10^3 cellules ascite d'Ehrlich fraîchement prélevées.
Dix souris ont été gardées témoins et 20 souris ont été traitées 24 heures après l'inoculation par la flavopéreirine à raison de deux fois par jours (2 x 150 µg) par voie intrapéritonéale et pendant 10 jours consécutifs.
Les résultats du tableau VIII ci-après illustrent la survie des animaux pendant trois mois (une survie de plusieurs jours n'est pas prise en considération).

virus de la vaccine = system: virus de la vaccine; parameters: species or system lapin; conditions: in vivo
virus de la grippe = format: in vivo, souris SWISS; conditions: doses comparables
tumeur MS 301 = test: transplantable mammary cancer of the mouse; format: in vivo, souris de souche Rh0 III; conditions: 400 ^gg at the tumour implantation site, twice a day for 15 days from day 3; n=10; p : 0,01
Source text: Action sur le cancer mammaire greffable de la souris • - Vingt souris de 18 à 20g, de souche Rh0 III ont été inoculées, par voie sous-cutanée, par 0,8 " d'un extrait de tumeur MS 301, broyé. Dix souris ont été gardées comme témoins; dix autres vaient, le troisième jour après l'inoculation, 400 ^gg d'alstonine au niveau de l'implantation tumorale, deux fois par jour, pendant quinze- jours. Au seizième jour, les souris étaient anesthésiées et sacrifiées, les tumeurs excisées et pesées. • - La même expérience fut effectuée avec la serpentine au lieu d'alstonine.

Ascite d'Ehrlich [4] = test: Ehrlich ascites tumour in the mouse, serpentine, alstonine, cyclophosphamide; format: in vivo, souris blanches Swiss; conditions: for survie (surviving mice/total): I.P., serpentine 400 µg par jour, cyclophosphamide 2 ma par jour
Source text: Activité vis-à-vis des tumeurs "Ascite d'Ehrlich" chez la souris - 5 x 10^3 cellules Ascite d'Ehrlich sont inoculées à des souris blanches Swiss de 20-24 g, par voie intrapéritonéale.
Divers traitements furent appliqués dès le quatrième ou le cinquième jour et pendant dix à quinze jours. […] Un net ralentissement du développement des tumeurs est observé, mais les tumeurs repartent après arrêt du traitement dans le cas du cyclophosphamide seul, le redémarrage peut être plus tardif qu'avec la serpentine ou l'alstonine. Par contre, l'association de serpentine (400 µg par jour) et de cyclophosphamide (2 ma par jour) par voie I.P. permet d'obtenir une survie définitive (survie définitive : survie normale pendant trois mois sans perte de poids) et le pourcentage des survivants varie de 80 à 100% (Tableau IV ci-après). Les souris ainsi guéries augmentent normalement de poids et après quatre à six mois celui-ci est de 24-26 g. Leur aspect est absolument normal et rien ne les distingue de souris saines. (Dans les expériences, seule la survie sans récidive est prise en considération).
La figurer, où sont portés en abscisses le nombre de jours de traitement et en ordonnées le poids (en gramme) des souris, montre l'évolution de la tumeur d'Ehrlich chez les souris traitées, soit par la serpentine seule (courbe 2), soit par le cyclophosphamide seul (courbe 3), soit par la serpentine + cyclophosphamide (courbe 4) par voie intra- péritonéale et aux doses indiquées ci-dessus. […] Aucun de ces deux traitements ne permet d'obtenir une survie.définitive. Par contre, le mélange de serpentine et de cyclophosphamide permet d'obtenir une survie définitive.

cancers du sein = test: clinical trials in humans, breast cancer cases; format: in vivo, humains
Source text: Toutefois, on a pu constater au cours des essais cliniques sur l'humain que les β-carbolines quaternaires avaient une demi-vie trop courte pour être administrée sous forme galénique mais que, de façon surprenante, on obtenait d'excellents résultats dans le traitement des cancers chez les humains en utilisant une nouvelle forme galénique constituée de microgranules à libération prolongée des p-carbolines quaternaires. Ces microgranules comprennent une âme neutre constituée d'un grain excipient inerte par exemple un ou plusieurs constituants tels que le sacchorose, l'amidon, le talc, la silice désséchante, le lactose et l'acide stéarique, le grain neutre étant muni d'une première couche comprenant la β-carboline quaternaire puis d'une seconde couche extérieure constituée par une enveloppe microporeuse comprenant au moins un polymère naturel et/ou synthétique appartenant à la classe constituée par la gomme laque, la qomme arabique, la gélatine, l'éthylcellulose, l'acétophtalate d2 cellulose, le triacétate de cellulose, le polyoxyéthylèneglycol, les méthacrylates, le copolymère styrène-acrylonitrile et la polyvinylpyrrolidone.
A titre d'exemple, on a reproduit ci-après trois cas significatifs relatifs à.des cancers du sein et pour lesquels on a utilisée la serpentine préparéeselon la nouvelle forme galénique objet de l'invention décrite ci-dessus.

Ascite d'Ehrlich [5] = test: Ehrlich ascites tumour in the mouse, serpentine, alstonine, cyclophosphamide; format: in vivo, souris blanches Swiss; conditions: voie sous-cutanée, doses as above
[6] = 150 µg dès l'ensemencement (per ml of culture)
[7] = 200 µg/ml, en culture de 7 jours dès l'ensemencement
[8] = 200 µg/ml, en culture de 3 jours dès l'ensemencement

With `CCc1ccc2c3[nH]c4ccccc4c3cc[n+]2c1` [flavopéreirine] the destruction des cellules [1, 6] was “- Pas de destruc-tion pendant 7 jours”, the destruction des cellules [1, 7] was “Pas de destruction pendant 8 jours” and the destruction des cellules [2] was “- Pas de destruc-tion pendant 7 jours”. The destruction des cellules (Cellules Hela) was “- Destruction to-tale en 24-48 heures”, the destruction des cellules (Cellules K.B.; [6]) was “- Destruction to-tale en 24-48 heures” and the destruction des cellules (Cellules K.B.; [8]) was “Destruction totale en 24-48 heures”. The destruction des cellules (Cellules L) was “- Destruction to-tale en 24-48 heures”, the “destruction des cellules saines” value (cellules saines; 150 µg par ml de culture) was “ne sont pas détruites pendant les 7 jours d'observation” and the “destruction des cellules cancéreuses” value (cellules cancéreuses; 150 µg par ml de culture) was “détruites en 24-48 heures”. The “survie (surviving mice/total)” value (lymphome YC 8; day 0) was 20/20, the “survie (surviving mice/total)” value (lymphome YC 8; day 21) was 20/20 and the “survie (surviving mice/total)” value (lymphome YC 8; day 60) was 17/20. For the same compound, the “survie (surviving mice/total)” value (lymphome YC 8; day 90) was 17/20, the “state of the surviving mice” value (lymphome YC 8; voie I.P., more than three months of observation) was “développement étant tout à fait normal” and the “survie de trois mois, share of treated mice” value (lymphome YC 8; voie sous-cutanée, 2 x 150 µg per day, 10 days) was 70-80%. The “survie (surviving mice/total)” value (ascite d'Ehrlich [3]; day 0) was 20/20, the “survie (surviving mice/total)” value (ascite d'Ehrlich [3]; day 24) was 17/20 and the “survie (surviving mice/total)” value (ascite d'Ehrlich [3]; day 60) was 11/20. For the same compound, the “survie (surviving mice/total)” value (ascite d'Ehrlich [3]; day 90) was 11/20, the “guérison (in words)” value (ascite d'Ehrlich [3]; flavopéreirine alone, three months of observation, same results in souris BALB c) was “permet la guérison d'un important pourcentage de souris” and the appearance of papules (virus de la vaccine) was “empêche l'apparition et le développement des papules virales”. The “activity against influenza compared with sempervirine” value (virus de la grippe) was “résultats tout à fait comparables”.
`COC(=O)C1=CO[C@@H](C)[C@H]2Cn3ccc4c5ccccc5nc-4c3C[C@H]12` [serpentine] was tested, and the destruction des cellules [1, 7] was “Pas de destruction pendant 8 jours”, the destruction des cellules (Cellules K.B.; [8]) was “Destruction totale en 24-48 heures” and the “destruction des cellules saines” value (cellules saines; 200 Mg par ml de culture, au bout de huit jours d'observation, reins de singe, Vero, SIRC) was “aucune destruction des cellules saines”. The “destruction des cellules cancéreuses” value (cellules cancéreuses; 200 Mg par ml de culture, en 24 à 48 heures, K.B., Hela, Hep II, L) was “toutes les cellules cancéreuses étaient détruites”, the “POIDS MOYEN (en grammes) DES TUMEURS, AU 16è JOUR” value (tumeur MS 301) was 1,6 (compris entre 0,9 et 2,5) grammes and the “survie (surviving mice/total)” value (Ascite d'Ehrlich [4]; day 0) was 10/10. For the same compound, the “survie (surviving mice/total)” value (Ascite d'Ehrlich [4]; day 25) was 10/10, the “survie (surviving mice/total)” value (Ascite d'Ehrlich [4]; day 35) was 0/10 and the “definitive arrest of the Ehrlich ascites tumour (in words)” value (Ascite d'Ehrlich [4]; each substance alone, treatment from day 4 or 5 for 10 to 15 days) was “ne peuvent définitivement arrêter la tumeur ascitique d'Ehrlich”. For the same compound, the “évolution de la tumeur d'Ehrlich (figure, weight of mice against days of treatment)” value (Ascite d'Ehrlich [4]; voie intrapéritonéale, doses as above, curves 2, 3, 4) was “net ralentissement du poids des tumeurs”, the “activity against influenza compared with sempervirine” value (virus de la grippe) was “résultats tout à fait comparables” and the “clinical outcome, case 1 (Madame M.)” value (cancers du sein; after one month, 100mg en microgranules par jour per os in two doses, after irradiation) was “régression des deux tumeurs”. For the same compound, the “clinical outcome, case 3 (Madame L.)” value (cancers du sein; bone metastases, sustained-release microgranules, 6 months of treatment) was “La fracture du col du fémur se consolide ainsi que disparait la métastase calcanéenne”, the “clinical outcome, case 1 (Madame M.)” value (cancers du sein; during 6 months of treatment, 100mg en microgranules par jour per os) was “la tumeur du sein diminue et disparait alors que le squirrhe lui-même régresse considérablement” and the “clinical outcome, case 2 (Madame P.)” value (cancers du sein; three months, microgranules 100 mg par jour per os in two doses, after radiotherapy and local excision) was “la douleur qui persistait après l'intervention disparait progressivement et le sein prend un aspect normal et indolore”. The “survie and tumour evolution (in words)” value (Ascite d'Ehrlich [5]) was “sans effet sur la survie définitive des souris”.
